System: caspase 3,7 activity in A431 cells
Experiment: cells
Source text: As described below, the capsase 3,7 assay uses the Promega Caspase-Glo 3/7 assay kit (cat no. G8092).
The Caspase-Glo® 3/7 Assay is a luminescent assay that measures caspase-3 and −7 activities in purified enzyme preparations or cultures of adherent or suspension cells. The assay provides a proluminescent caspase-3/7 substrate, which contains the tetrapeptide sequence, DEVD. This substrate is cleaved to release aminoluciferin, a substrate of luciferase used in the production of light. The Caspase-Glo® 3/7 Reagent has been optimized for caspase activity, luciferase activity and cell lysis. The addition of the single Caspase-Glo® 3/7 Reagent in an “add-mix-measure” format results in cell lysis, followed by caspase cleavage of the substrate and generation of a “glow-type” luminescent signal. The Caspase-Glo® 3/7 Assay is designed for use with multiwell plate formats, making it ideal for automated high-throughput screening of caspase activity or apoptosis.
Staurosporine was used as a positive control.
For the capsase 3,7 assay, cells were incubated for 5.5 hrs at 37° C., 5% CO2. The plate was removed from the incubator and equilibrated to room temperature. After 30 min, 25 μl Caspase 3/7 detection reagent (Promega Caspase-Glo 3/7 assay kit, cat no. G8092) was added to each well. The plate was covered with tin foil and shaken on a plate shaker at speed 4 for 3 min. The plate was then incubated for an additional 60 min at room temperature. Luminescence was detected using the PolarStar plate reader.
All statistical analyses were done using GraphPad Prism.
The assay was stopped after 6 hrs and the presence of caspase was measured using the Promega Caspase-Glo® 3/7 Assay.

[1] = Homo sapiens, A-431, read-out: Total Apoptosis (increase in caspase 3,7 activity as percentage of the maximal response)

Cc1c(Cl)cnc(NC(c2cccc(Cl)c2Cl)c2ccc3cccnc3c2O)c1F (stereo not shown) [AD4-13192]
Emax at 8 µM [1]: 29% | Emax at 16 µM [1]: 32% | effect on Tarceva to increase caspase 3,7 activity (Tarceva plus compound, A431 cells, 6 hrs): synergistic (greater-than-additive) effect | Ability to Synergize with Tarceva (caspase 3,7 activity, A431 cells): +++ (0.3-0.7 Synergism)

From patent US9073858B2, “Methods of targeted drug development” (priority 2010, dated 2015)
